According to patent publication US20140100290A1, “Method of treating a prostate condition” (priority 2012, published 2014):

Columns and labels:
Type in all cases: cell-based, Human
LNCaP cells [1] = test: DNA fragmentation assay (Apoptotic DNA-Ladder Kit) in LNCaP cells; settings: 10 μM and 1000 μM, 48 hours
Experimental: (§1) Human metastatic prostate cancer cells, LNCaP, were obtained from ATCC (Manassas, Va., USA). Cells were grown in RPMI-1640 medium supplemented with 2mM glutamine, 10% FBS, 100 U/mL penicillin, and 100 μg/mL streptomycin. LNCaP cells were maintained in a humidified atmosphere of 5% CO2 at 37° C. in T-75 flasks and were subcultured when confluent. Experiments were conducted using cells with passage numbers ranging from 5-20.
During apoptosis, pro-apoptotic proteins such as apoptosis-inducing factor (AIF), endonuclease G, and caspase-activated DNase (CAD) are released from the mitochondria, which occur after the cell has committed to die. AIF, after translocation to the nucleus, causes DNA fragmentation (˜50-300 kb pieces) and peripheral nuclear chromatin condensation which is referred to as “stage 1” condensation. Endonuclease G also cleaves nuclear chromatin to produce oligonucleosomal DNA fragments following its translocation to the nucleus. Both, AIF and endonuclease G function in caspase-independent manner. CAD subsequently released from mitochondria, after getting cleaved by activated caspase-3, is known to translocate into the nucleus leading to oligonucleosomal cleavage of DNA into 180 by fragments and a more pronounced chromatin condensation referred to as “stage 11” condensation.
This cleaved DNA is easily observed as a “ladder” upon analysis by gel electrophoresis. […]

LNCaP cells [2] = test: Morphological analysis of LNCaP cells; settings: 10 μM and 1000 μM, 48 hours, dose-dependent
Experimental: as §1
Prominent features of morphological changes occurring in a cell, such as cell shrinkage, rounding of cells, membrane blebbing, and formation of apoptotic bodies indicate induction of apoptosis or programmed cell death.
In order to identify the morphological changes in LNCaP cells after treatment with carvacrol, 2×10^6 cells/well were seeded in flat-bottom, 6-well microtiter plates, allowed to grow for 24 hours, treated with 10 μM and 1000 μM of carvacrol, and incubated for a further 48 hours at 37° C. Post incubation, cells were washed twice with PBS, and microscopic photographs of morphological changes of the cells were captured using a fluorescent microscope, Axiovert 200M (Carl Zeiss MicroImaging Inc, NY, USA). 1.15% EtOH was used in solvent control.

[3] = system: cytochrome c release in LNCaP cells; test: Western blot analysis of cytochrome c release in LNCaP cells; settings: 10 μM and 1000 μM, 48 h
Experimental: as §1
Western blotting is a widely used analytical technique for detection of specific proteins separated from one another, according to their size, by gel electrophoresis. Application of an electric current induces proteins on the gel to move on to the membrane (nitrocellulose or PVDF) placed next to it. Proteins on the gel get transferred on to the membrane which is subsequently stained with the antibody. Once detected, the target protein will be visualized as a band on a blotting membrane, X-ray film, or an imaging system. […]
After maintaining constant agitation at 4° C. for 30 minutes, lysates were collected in microcentrifuge tubes and centrifuged at 12,000 rpm at 4° C. for 20 minutes. […] Protein concentration was determined using the Pierce® BCA protein assay kit. […] Western blot images are representative of at least 3 independent experiments, while quantification data represent mean±S.E.M. of n>3 experiments.

LNCaP cells [4] = test: Phosphatidylserine externalization by fluorescence microscopy (PSVue 480) in LNCaP cells; settings: 10 μM and 1000 μM, 48 hours, dose-dependent
Experimental: as §1
One of the earliest events to occur in apoptosis or programmed cell death is the externalization of phosphatidylserine (PS), a membrane phospholipid restricted to the inner leaflet of the lipid bilayer. Redistribution of PS from the inner leaflet to the outer leaflet occurs in cells undergoing apoptosis. The PSVue™ 480 reagent kit was used to perform the phosphatidylserine (PS) externalization assay. The principle behind this assay involves a strong binding of PSVue™ 480 (fluorescent probe) to the anionic PS residues exposed on the surface of the apoptotic cells by its Zn (II)-dipicolylamine (Zn-DPA) functionality, making it a useful apoptotic sensor.
To detect PS externalization, LNCaP cells were seeded as 0.5×10^6 cells/well in flat-bottom, 6-well microtiter plates. After 24 hours of incubation at 37° C., cells were treated with 10 μM and 1000 μM of carvacrol for 48 hours. […]

Cc1ccc(C(C)C)cc1O [Carvacrol]
fragmentation of DNA (LNCaP cells [1]): Fragmentation of DNA was observed
morphological changes (features of apoptosis) (LNCaP cells [2]): typical features of apoptosis like rounding of cells, membrane blebbing, cell shrinkage and formation of apoptotic bodies were observed
cytochrome c release (Western blot, densitometry vs solvent control) [3]: dose-dependent increase in cytochrome c release
externalization of phosphatidylserine residues (PSVue 480 positive cells) (LNCaP cells [4]): showed externalization of phosphatidylserine residues
